Laboratory results: paper PMC4281096 (Journal of Medicinal Chemistry, 2014)

What was measured:
[1] = ref [24], cited from earlier work; for isomerization after 6 days: acetonitrile/water solution
[2] = system: SJSA-1 osteosarcoma tumor cell line
[3] = 17D 200 mg/kg or 31 100 mg/kg, daily oral 14 days
[4] = target: recombinant human His-tagged MDM2 protein (residues 1–118) (Homo sapiens, UniProt Q00987); settings: in words
[5] = system: p53 activation and apoptosis in SJSA-1 tumor tissue; settings: mouse, in vivo, po, 100 mg/kg
[6] = system: SJSA-1 osteosarcoma xenografts; settings: 100 mg/kg, orally daily for 14 days

recombinant human His-tagged MDM2 protein (residues 1–118), sequence (Q00987 1-118): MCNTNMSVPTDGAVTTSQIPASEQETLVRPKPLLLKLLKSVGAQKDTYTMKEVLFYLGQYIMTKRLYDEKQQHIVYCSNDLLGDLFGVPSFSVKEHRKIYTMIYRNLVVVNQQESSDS

| SMILES | IC50 values in inhibition of cell growth [2] | other results |
| --- | --- | --- |
| CC(C)(C)C[C@@H]1N[C@@H](C(=O)N[C@H]2C[C@@](C)(O)C2)[C@H](c2cccc(Cl)c2F)[C@]12C(=O)Nc1cc(Cl)ccc12 [Compound 3] | – | % composition of compound in 1:1 CH3CN/H2O, 0 h ([1]; 0 h): 100%; isomerization after 6 days [1]: 2.3% |
| CC1(C)N[C@@H](C(=O)N[C@H]2CC[C@H](O)CC2)[C@H](c2cccc(Cl)c2F)[C@]12C(=O)Nc1cc(Cl)ccc12 [Compound 12D, (3R,4′S,5′R)-6-Chloro-4′-(3-chloro-2-fluorophenyl)-N-((1R,4R)-4-hydroxycyclohexyl)-2′,2′-dimethyl-2-oxospiro[indoline-3,3′-pyrrolidine]-5′-carboxamide] | low micromolar range | – |
| CCCC1(CCC)N[C@@H](C(=O)N[C@H]2CC[C@H](O)CC2)[C@H](c2cccc(Cl)c2F)[C@]12C(=O)Nc1cc(Cl)ccc12 [Compound 14D, (3R,4′S,5′R)-6-Chloro-4′-(3-chloro-2-fluorophenyl)-N-((1r,4R)-4-hydroxycyclohexyl)-2-oxo-2′,2′-di-n-propylspiro[indoline-3,3′-pyrrolidine]-5′-carboxamide] | low micromolar range | – |
| O=C(N[C@H]1CC[C@H](O)CC1)[C@@H]1NC2(CCC2)[C@]2(C(=O)Nc3cc(Cl)ccc32)[C@H]1c1cccc(Cl)c1F [Compound 15C, (3′S,4′S,5′R)-6″-Chloro-4′-(3-chloro-2-fluorophenyl)-N-((1R,4R)-4-hydroxycyclohexyl)-2″-oxodispiro[cyclobutane-1,2′-pyrrolidine-3′,3″-indoline]-5′-carboxamide] | low micromolar range | – |
| O=C(N[C@H]1CC[C@H](O)CC1)[C@@H]1NC2(CCC2)[C@@]2(C(=O)Nc3cc(Cl)ccc32)[C@H]1c1cccc(Cl)c1F [Compound 15D, (3′R,4′S,5′R)-6″-Chloro-4′-(3-chloro-2-fluorophenyl)-N-((1R,4R)-4-hydroxycyclohexyl)-2″-oxodispiro[cyclobutane-1,2′-pyrrolidine-3′,3″-indoline]-5′-carboxamide] | low micromolar range | – |
| O=C(N[C@H]1CC[C@H](O)CC1)[C@@H]1NC2(CCCC2)[C@@]2(C(=O)Nc3cc(Cl)ccc32)[C@H]1c1cccc(Cl)c1F [Compound 16D, (3′R,4′S,5′R)-6″-Chloro-4′-(3-chloro-2-fluorophenyl)-N-((1R,4R)-4-hydroxycyclohexyl)-2″-oxodispiro[cyclopentane-1,2′-pyrrolidine-3′,3″-indoline]-5′-carboxamide] | sub-micromolar | – |
| O=C(N[C@H]1CC[C@H](O)CC1)[C@@H]1NC2(CCCCC2)[C@@]2(C(=O)Nc3cc(Cl)ccc32)[C@H]1c1cccc(Cl)c1F [Compound 17D, (3′R,4′S,5′R)-6″-Chloro-4′-(3-chloro-2-fluorophenyl)-N-((1R,4R)-4-hydroxycyclohexyl)-2″-oxodispiro[cyclohexane-1,2′-pyrrolidine-3′,3″-indoline]-5′-carboxamide] | sub-micromolar | signs of toxicity during or after the treatment [3]: did not show any signs of toxicity; weight loss [3]: no weight loss |
| N[C@@H](C(=O)N[C@H]1CC[C@H](O)CC1)[C@H](c1cccc(Cl)c1F)C1C(=O)Nc2cc(Cl)ccc21 (stereo partly drawn) [Compound 20] | – | binding to MDM2 [4]: does not bind to MDM2 |
| O=C(NCCN1CCOCC1)[C@@H]1NC2(CCC2)[C@]2(C(=O)Nc3cc(Cl)ccc32)[C@H]1c1cccc(Cl)c1F [Compound 22C] | low micromolar range | – |
| O=C(NCCN1CCOCC1)[C@@H]1NC2(CCC2)[C@@]2(C(=O)Nc3cc(Cl)ccc32)[C@H]1c1cccc(Cl)c1F [Compound 22D] | low micromolar range | – |
| O=C(NCCN1CCOCC1)[C@@H]1NC2(CCCCC2)[C@@]2(C(=O)Nc3cc(Cl)ccc32)[C@H]1c1cccc(Cl)c1F [Compound 23D] | sub-micromolar | – |
| O=C(NCC[C@H](O)CO)[C@@H]1NC2(CCC2)[C@]2(C(=O)Nc3cc(Cl)ccc32)[C@H]1c1cccc(Cl)c1F [Compound 25C] | low micromolar range | – |
| O=C(NCC[C@H](O)CO)[C@@H]1NC2(CCC2)[C@@]2(C(=O)Nc3cc(Cl)ccc32)[C@H]1c1cccc(Cl)c1F [Compound 25D] | low micromolar range | – |
| O=C(NCC[C@H](O)CO)[C@@H]1NC2(CCCCC2)[C@@]2(C(=O)Nc3cc(Cl)ccc32)[C@H]1c1cccc(Cl)c1F [Compound 26D] | sub-micromolar | – |
| C[C@]1(O)C[C@@H](NC(=O)[C@@H]2NC3(CCC3)[C@]3(C(=O)Nc4cc(Cl)ccc43)[C@H]2c2cccc(Cl)c2F)C1 [Compound 28C] | low micromolar range | – |
| C[C@]1(O)C[C@@H](NC(=O)[C@@H]2NC3(CCCCC3)[C@@]3(C(=O)Nc4cc(Cl)ccc43)[C@H]2c2cccc(Cl)c2F)C1 [Compound 29D] | sub-micromolar | – |
| O=C(O)c1ccc(NC(=O)[C@@H]2NC3(CCCCC3)[C@@]3(C(=O)Nc4cc(Cl)ccc43)[C@H]2c2cccc(Cl)c2F)cc1 [Compound 31, 4-((3′R,4′S,5′R)-6″-Chloro-4′-(3-chloro-2-fluorophenyl)-2″-oxodispiro[cyclohexane-1,2′-pyrrolidine-3′,3″-indoline]-5′-carboxamido)benzoic Acid] | – | PARP cleavage (apoptosis induction) in tumor tissue [5]: robust cleavage of PARP; p53 activation (accumulation of p53, MDM2 and p21 proteins) in tumor tissue [5]: effectively activated p53; mice with no detectable tumor ([6]; day 25, of eight mice): three; tumor regression ([6]; in words): achieved significant tumor regression; signs of toxicity during or after the treatment [3]: did not show any signs of toxicity; weight loss [3]: no weight loss |
| CC(C)(C)C[C@@H]1N[C@@H](C(=O)NCCN2CCOCC2)[C@H](c2cccc(Cl)c2F)[C@]12C(=O)Nc1cc(Cl)ccc12 [MI-63] | – | isomerization after 6 days [1]: 17.3% |
| CC(C)(C)C[C@@H]1N[C@@H](C(=O)NCC[C@H](O)CO)[C@H](c2cccc(Cl)c2F)[C@]12C(=O)Nc1cc(Cl)ccc12 [MI-147] | – | isomerization after 6 days [1]: 8.6% |
